Measurements from PubChem BioAssay AID2060504 (Molecular Pharmacology Branch, DTP, NCI, 2025).

Tested on: 636577-100-R-J1-PDC complex spheroid viability
Assay: Anticancer human tumor 636577-100-R-J1-PDC patient-derived endometrial adenocarcinoma cell line growth inhibition [GQUAD]
Details: for IC50: curve of first compound; for viability, T/C: stronger effect = lower value
How it was run: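 Multi-cell-type spheroids of tumor cells with HUVEC and mesenchymal stem cells, treated with drug combinations. Concentrations descend in half-log steps from near clinical Cmax, or from 10 microM where Cmax is unknown; viability read-out.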

[1] = second compound 0.0316 µM, first compound 0.0316 µM
[2] = second compound 0.0316 µM, first compound 0.1 µM
[3] = second compound 0.0316 µM, first compound 0.316 µM
[4] = second compound 0.0316 µM, first compound 1 µM
[5] = second compound 0.0316 µM, first compound 3.16 µM
[6] = second compound 0.0316 µM, first compound 10 µM
[7] = second compound 0.1 µM, first compound 0.0316 µM
[8] = second compound 0.1 µM, first compound 0.1 µM
[9] = second compound 0.1 µM, first compound 0.316 µM
[10] = second compound 0.1 µM, first compound 1 µM
[11] = second compound 0.1 µM, first compound 3.16 µM
[12] = second compound 0.1 µM, first compound 10 µM
[13] = second compound 0.316 µM, first compound 0.0316 µM
[14] = second compound 0.316 µM, first compound 0.1 µM
[15] = second compound 0.316 µM, first compound 0.316 µM
[16] = second compound 0.316 µM, first compound 1 µM
[17] = second compound 0.316 µM, first compound 3.16 µM
[18] = second compound 0.316 µM, first compound 10 µM
[19] = second compound 1 µM, first compound 0.0316 µM
[20] = second compound 1 µM, first compound 0.1 µM
[21] = second compound 1 µM, first compound 0.316 µM
[22] = second compound 1 µM, first compound 1 µM
[23] = second compound 1 µM, first compound 3.16 µM
[24] = second compound 1 µM, first compound 10 µM
[25] = second compound 3.16 µM, first compound 0.0316 µM
[26] = second compound 3.16 µM, first compound 0.1 µM
[27] = second compound 3.16 µM, first compound 0.316 µM
[28] = second compound 3.16 µM, first compound 1 µM
[29] = second compound 3.16 µM, first compound 3.16 µM
[30] = second compound 3.16 µM, first compound 10 µM
[31] = second compound 10 µM, first compound 0.0316 µM
[32] = second compound 10 µM, first compound 0.1 µM
[33] = second compound 10 µM, first compound 0.316 µM
[34] = second compound 10 µM, first compound 1 µM
[35] = second compound 10 µM, first compound 3.16 µM
[36] = second compound 10 µM, first compound 10 µM
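Further: viability read after seven days of drug exposure.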
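Wherever viability, T/C is given: luminescence signal used as a proxy for viable cells; 100% = DMSO vehicle control wells.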

## C#Cc1c(F)ccc2cc(O)cc(-c3ncc4c(N5CC6CCC(C5)N6)nc(OCC56CCCN5CC(F)C6)nc4c3F)c12 (stereo unspecified) + Cc1cnc(CNC(=O)c2c(=O)c3ccc(N4CCCN(C)CC4)nc3n3c2sc2ccccc23)cn1
Second compound 0.0316 µM
  IC50: < 31.6 nM
Second compound 0.1 µM
  IC50: < 31.6 nM
Second compound 0.316 µM
  IC50: < 31.6 nM
Second compound 1 µM
  IC50: < 31.6 nM
Second compound 3.16 µM
  IC50: < 31.6 nM
Second compound 10 µM
  IC50: < 31.6 nM
[1]
  viability, T/C: 48.3%
[2]
  viability, T/C: 45.1%
[3]
  viability, T/C: 46%
[4]
  viability, T/C: 30.9%
[5]
  viability, T/C: 38%
[6]
  viability, T/C: 28.6%
[7]
  viability, T/C: 31.6%
[8]
  viability, T/C: 26.9%
[9]
  viability, T/C: 25.8%
[10]
  viability, T/C: 21.6%
[11]
  viability, T/C: 22.5%
[12]
  viability, T/C: 20%
[13]
  viability, T/C: 22.2%
[14]
  viability, T/C: 22.6%
[15]
  viability, T/C: 25%
[16]
  viability, T/C: 18.9%
[17]
  viability, T/C: 19.8%
[18]
  viability, T/C: 16%
[19]
  viability, T/C: 18.4%
[20]
  viability, T/C: 19%
[21]
  viability, T/C: 21%
[22]
  viability, T/C: 18.1%
[23]
  viability, T/C: 15.7%
[24]
  viability, T/C: 13.3%
[25]
  viability, T/C: 17.1%
[26]
  viability, T/C: 20.5%
[27]
  viability, T/C: 19.5%
[28]
  viability, T/C: 17.4%
[29]
  viability, T/C: 17%
[30]
  viability, T/C: 16.5%
[31]
  viability, T/C: 19.3%
[32]
  viability, T/C: 16.1%
[33]
  viability, T/C: 20.3%
[34]
  viability, T/C: 17.5%
[35]
  viability, T/C: 19.7%
[36]
  viability, T/C: 16.2%

## CC[C@@]1(O)C(=O)OCc2c1cc1n(c2=O)Cc2cc3c(CN(C)C)c(O)ccc3nc2-1 + CN(C)c1ccc(Nc2c3ccc(NC(=O)CCN4CCCC4)cc3nc3cc(NC(=O)CCN4CCCC4)ccc23)cc1
Second compound 0.0316 µM
  IC50: 18.5 nM
Second compound 0.1 µM
  IC50: 18.6 nM
Second compound 0.316 µM
  IC50: 18.7 nM
Second compound 1 µM
  IC50: 11.8 nM
Second compound 3.16 µM
  IC50: < 0.999 nM
Second compound 10 µM
  IC50: < 0.999 nM
Second compound 0.0316 µM, first compound 0.000999 µM
  viability, T/C: 108%
Second compound 0.0316 µM, first compound 0.00316 µM
  viability, T/C: 75.3%
Second compound 0.0316 µM, first compound 0.00999 µM
  viability, T/C: 72.1%
[1]
  viability, T/C: 37.2%
Second compound 0.0316 µM, first compound 0.0999 µM
  viability, T/C: 21.1%
[3]
  viability, T/C: 27.1%
Second compound 0.1 µM, first compound 0.000999 µM
  viability, T/C: 88.6%
Second compound 0.1 µM, first compound 0.00316 µM
  viability, T/C: 74.7%
Second compound 0.1 µM, first compound 0.00999 µM
  viability, T/C: 74.2%
[7]
  viability, T/C: 29.5%
Second compound 0.1 µM, first compound 0.0999 µM
  viability, T/C: 22.3%
[9]
  viability, T/C: 23.6%
Second compound 0.316 µM, first compound 0.000999 µM
  viability, T/C: 77.8%
Second compound 0.316 µM, first compound 0.00316 µM
  viability, T/C: 65.9%
Second compound 0.316 µM, first compound 0.00999 µM
  viability, T/C: 62.7%
[13]
  viability, T/C: 41.5%
Second compound 0.316 µM, first compound 0.0999 µM
  viability, T/C: 22%
[15]
  viability, T/C: 23.9%
Second compound 1 µM, first compound 0.000999 µM
  viability, T/C: 64.3%
Second compound 1 µM, first compound 0.00316 µM
  viability, T/C: 96.1%
Second compound 1 µM, first compound 0.00999 µM
  viability, T/C: 54%
[19]
  viability, T/C: 30.4%
Second compound 1 µM, first compound 0.0999 µM
  viability, T/C: 24.4%
[21]
  viability, T/C: 22.7%
Second compound 3.16 µM, first compound 0.000999 µM
  viability, T/C: 34.8%
Second compound 3.16 µM, first compound 0.00316 µM
  viability, T/C: 45.4%
Second compound 3.16 µM, first compound 0.00999 µM
  viability, T/C: 37.6%
[25]
  viability, T/C: 26.2%
Second compound 3.16 µM, first compound 0.0999 µM
  viability, T/C: 21.2%
[27]
  viability, T/C: 20%
Second compound 10 µM, first compound 0.000999 µM
  viability, T/C: 6.05%
Second compound 10 µM, first compound 0.00316 µM
  viability, T/C: 6.87%
Second compound 10 µM, first compound 0.00999 µM
  viability, T/C: 5.66%
[31]
  viability, T/C: 4.71%
Second compound 10 µM, first compound 0.0999 µM
  viability, T/C: 5.96%
[33]
  viability, T/C: 4.24%

## CC1COCCN1c1cc(C2(S(C)(=N)=O)CC2)nc(-c2ccnc3[nH]ccc23)n1 (stereo unspecified) + Cc1cnc(CNC(=O)c2c(=O)c3ccc(N4CCCN(C)CC4)nc3n3c2sc2ccccc23)cn1
Second compound 0.0316 µM
  IC50: 239 nM
Second compound 0.1 µM
  IC50: < 31.6 nM
Second compound 0.316 µM
  IC50: < 31.6 nM
Second compound 1 µM
  IC50: < 31.6 nM
Second compound 3.16 µM
  IC50: < 31.6 nM
Second compound 10 µM
  IC50: < 31.6 nM
[1]
  viability, T/C: 56.2%
[2]
  viability, T/C: 50%
[3]
  viability, T/C: 54.1%
[4]
  viability, T/C: 30.5%
[5]
  viability, T/C: 45.3%
[6]
  viability, T/C: 12.3%
[7]
  viability, T/C: 30.8%
[8]
  viability, T/C: 29.6%
[9]
  viability, T/C: 33.5%
[10]
  viability, T/C: 21.7%
[11]
  viability, T/C: 27.5%
[12]
  viability, T/C: 12.2%
[13]
  viability, T/C: 23.4%
[14]
  viability, T/C: 24.4%
[15]
  viability, T/C: 25.2%
[16]
  viability, T/C: 22%
[17]
  viability, T/C: 24.2%
[18]
  viability, T/C: 14.5%
[19]
  viability, T/C: 21.1%
[20]
  viability, T/C: 22.7%
[21]
  viability, T/C: 21.8%
[22]
  viability, T/C: 18.3%
[23]
  viability, T/C: 24.8%
[24]
  viability, T/C: 9.7%
[25]
  viability, T/C: 18.5%
[26]
  viability, T/C: 18.5%
[27]
  viability, T/C: 21.2%
[28]
  viability, T/C: 19.4%
[29]
  viability, T/C: 21.5%
[30]
  viability, T/C: 14.3%
[31]
  viability, T/C: 16.9%
[32]
  viability, T/C: 22.2%
[33]
  viability, T/C: 23.4%
[34]
  viability, T/C: 22.7%
[35]
  viability, T/C: 23%
[36]
  viability, T/C: 13.2%
